Results taken from patent publication US20090293139A1, “DOUBLE-INDUCIBLE GENE ACTIVATION SYSTEM AND ITS APPLICATIONS” (The Texas A&M University System Agency State of Texas, priority 2008, published 2009).

Legend:
[1] = test system: iCasp3 precursors; test: Western blot (anti-HA) of transfected cell lysates, iCasp3; type: cell-based, monkey; conditions: for expression of iCasp3 precursors: CVI cells transfected with Glp65 and pTATA-HA-iCasp3, drug alone, anti-HA Western blot
Experimental: (§1) A double-inducible gene activation system was evaluated in vitro using a cell culture model. Three plasmids were constructed: 1) chimeric transcription factor, Glp65 containing progesterone receptor ligand-binding domain (PR-LBDΔ) (FIG. 1); 2) pTATA-HA-iCasp3 (myristoylated) carrying CBD; and 3) pTATA-HA-iCasp9 carrying CBD (FIGS. 1 and 2). The chimeric transcription factor and one of the two caspase plasmids were transfected into CVI cells (monkey kidney fibroblasts).
(§2) One plasmid expressed a tissue-specific chimeric transcription factor (Glp65) that can be activated by RU486, which functioned as the first induction in our system. In this case, an epidermal-specific keratin 14 (K14) promoter was used to direct gene expression to the keratinocytes of the basal epidermis and hair follicles (KI4-Glp65, FIG. 1; Cao et al., 2002; Kucra et al., 1996). The second plasmid expressed the target transgene. The plasmid contained four copies of the 17-mer GAL4 binding site in the promoter region (FIG. 1). Full length of caspase-3 cDNA with CID binding domain and HA-tag fragment was cloned by polymerase chain reation (PCR) from an expression vector pSH1/M-Fv2-Yama-E (Fan et al., 1999) and was then subcloned into p17×4 TATA-H2 kd vector (Bo et al., 2005) by ClaI and BamH I to generate pTATA-HA-iCasp3 […].
(§3) Cell lysates were assessed by Western blot using an anti-HA antibody. […] With the subsequent application of CID, caspase 3 and caspase 9 were activated as evidenced by the disappearance of the caspase precursors due to the hemagglutinin (HA) tag carrying a caspase cleavage consensus site, DVPD (lanes 4 in FIGS. 3 and 4).

[2] = test system: iCasp9; test: Western blot (anti-HA) of transfected cell lysates, iCasp9; type: cell-based, monkey; conditions: for expression of iCasp9 precursors: CVI cells transfected with Glp65 and pTATA-HA-iCasp9, drug alone, anti-HA Western blot
Experimental: as §1, §2, §3

[3] = test system: caspase-3; test: Clonetech ApoAlert Caspase Assay, caspase-3 activity in transfected CVI cells; type: cell-based, monkey; conditions: CVI cells treated for 1.5 hrs
Experimental: as §1

[4] = test system: caspase-9; test: Clonetech ApoAlert Caspase Assay, caspase-9 activity in transfected CVI cells; type: cell-based, monkey; conditions: CVI cells treated for 1.5 hrs
Experimental: as §1

[5] = test system: K14-Glp65/iCasp3 and K14-Glp65/iCasp9 bigenic mice; test: Skin phenotype of adult bigenic mice after RU486 pellet and intraperitoneal CID; type: in vivo, mouse
Experimental: A double-inducible gene activation system was tested in vivo in two bigenic mouse lines, K14-Glp65/iCasp3 and K14-Glp65/iCasp9. The bigenic mice were generated by breeding two individual mouse lines.
The breeding of the first and second transgenic mouse lines generated bigenic mice called K14-Glp65/iCasp3 and K14-Glp65/iCasp9, which harbored both RU486 and CID regulators as depicted in FIG. 1. With the application of RU486, the Glp65 fusion protein was exclusively expressed in skin keratinocytes, which subsequently initiated caspase precursor induction.
Bigenic mice between 8 and 15 weeks of age were subjected to RU486 treatment using a 21-day-release pellet that was surgically inserted beneath the skin in the region of the posterior scapula. The addition of RU486 activates the chimeric transcription factor and allows it to bind to the GAL4 DNA binding site of the caspase precursor target gene (either icasp3 or icasp9) and induces target gene expression. After seven days of RU486 treatment, CID was applied intraperitoneally to induce self-activation of caspase precursors. Placebo pellets lacking RU486 and CID-diluent were used for control groups.

[6] = test system: K14-Glp65/iCasp3 and K14-Glp65/iCasp9 bigenic mice; test: Skin phenotype of neonates after RU486 in utero and topical CID; type: in vivo, mouse; conditions: RU486 in utero; topical CID twice per day, after two days; compared to control littermates
Experimental: (§4) To closely monitor the phenotypic changes of the skin of bigenic mice after the activation of caspases through the double-inducible system, we tested system in neonates by delivering RU486 in utero. The RU486 was dissolved in sesame oil and delivered intraperitoneally for 5 days at a dosage of 100 μg/kg per day into pregnant female K14-Glp65/iCasp3 and K14-Glp65/iCasp9 bigenic mice at 14.5 days gestation. To counter the abortion side-effect of RU486, progesterone (Sigma, St. Louis, Mo.) at 0.5 mg/mouse per day was applied along with RU486. Transgenic pups were treated topically with CID on their dorsal anterior-posterior (AP) axes twice per day and monitored closely for phenotypic changes or visible signs of apoptosis. Control littermates were treated with only the diluent only without CID. […] On day four, skin biopsies were taken from the back skin of the pups and fixed in 4% paraformaldehyde.

[7] = test system: adult mouse ear skins and newborn mouse back skins; test: Microscopic and histological analysis of skin (H&E); type: in vivo
Experimental: The skin apoptosis was evaluated by TUNEL assay (panels j-l).
Skin sections from K14-Glp65/iCasp9 newborn mice back skin were visualized by H&E stain (panels a-c), and were immunostained by keratin 14 antibody (panels d-f). […] The skin apoptosis was evaluated by TUNEL assay (panels j-l).
Apoptosis was evaluated by TUNEL staining.

[8] = test system: adult mouse ear skins and newborn mouse back skins; test: TUNEL staining of skin (apoptosis); type: in vivo
Experimental: (§5) Induction of the two caspases was then further studied by immunohistochemical staining with an anti-HA antibody. […] Apoptosis was evaluated by TUNEL staining.

[9] = test system: caspase 3; test: Western blot of mouse skin tissues, induced caspase 3; type: in vivo; conditions: transgenic mouse skin
Experimental: as §4

[10] = test system: caspase 9; test: Western blot of mouse skin tissues, induced caspase 9; type: in vivo; conditions: transgenic mouse skin
Experimental: as §4

[11] = test system: caspase precursors; test: Immunohistochemical staining of skin with anti-HA antibody; type: in vivo; conditions: adult mouse ear skins and newborn mouse back skins
Experimental: as §5

[12] = subsequent application of CID after RU486, CVI cells

| Structure (SMILES) | expression of iCasp3 precursors [1] | caspase 3 activation (disappearance of the caspase precursors) [1, 12] | expression of iCasp9 precursors [2] | caspase 9 activation (disappearance of the caspase precursors) [2, 12] | increase in caspase-3 activity [3] | increase in caspase-9 activity [4] | skin phenotype of ears ([5]; adult bigenic mice, five days following intraperitoneal CID after seven days of RU486 pellet) | skin phenotype of pups [6] | skin structure [7] | TUNEL-positive nuclei (apoptosis) [8] | skin phenotype of ears ([5]; adult bigenic mice that only received RU486 treatment) | expression level of induced caspase 3 [9] | expression level of induced caspase 9 [10] | expression of caspase precursors (anti-HA staining) [11] |
| --- | --- | --- | --- | --- | --- | --- | --- | --- | --- | --- | --- | --- | --- | --- |
| CC[C@H](C(=O)N1CCCC[C@H]1C(=O)O[C@H](CCc1ccc(OC)c(OC)c1)c1cccc(OCC(=O)NCC(CNC(=O)COc2cccc([C@@H](CCc3ccc(OC)c(OC)c3)OC(=O)[C@@H]3CCCCN3C(=O)[C@@H](CC)c3cc(OC)c(OC)c(OC)c3)c2)CN(C)C)c1)c1cc(OC)c(OC)c(OC)c1 [CID] | No caspase precursors were induced | activated | No caspase precursors were induced | activated | not | not | reddening of the surface layers of the skin and thickness | exhibited peeling and appeared dehydrated | normal skin structures | no or basal level of apoptosis |  |  |  |  |
| CC#C[C@]1(O)CC[C@H]2[C@@H]3CCC4=CC(=O)CCC4=C3[C@@H](c3ccc(N(C)C)cc3)C[C@@]21C [RU486, mifepristone] | induced the expression |  | induced the expression |  | not | not |  |  | normal skin structures | no or basal level of apoptosis | did not observe this phenotype | strong expression | strong expression | Strong expression |
